Results reported in US20230087644A1, “Probe for Specifically Detecting Pathological Collagens, and Preparation Method Therefor and Use Thereof” (LANZHOU UNIVERSITY, priority 2020, published 2023).

How the values were obtained:
[1] = Colorimetric assay of peptide probe solutions (trimer vs single-stranded state); type: physicochemical; details: 300 μM probe solution; for conformational state (colour of solution) at 0° C.: 0° C. ice-water for 12 h after heating; for conformational state (colour of solution) after heating: 85° C. water bath 20 min
Protocol: Take the peptide probe GOP-10, GPP-10, GPO-10 and GOO-10, and prepare 300 μM probe solutions respectively; Keep above probe solutions in a water bath at 85° C. for 20 min, and collect picture data via a digital camera and observe the color of the solutions. Place heated probe solution in the ice-water mixture at 0° C. for 12 h, and then collect picture data via a digital camera again and observe the color of the solution.

[2] = Thermal stability test (fluorescence intensity at 525 nm, 0-95° C.); type: physicochemical; details: 15 μM probe in 10 mM phosphate buffer; for fluorescence intensity in the range of 0-95° C.: 525 nm, temperature gradient; for thermal transformation temperature: from derivative curves
Protocol: Take the peptide probe GOP-10, GPP-10, GPO-10 and GOO-10, and prepare 300 μM probe solutions respectively; Dilute each probe solution to 15 μM by 10 mM phosphate buffer, and store at 0° C. for later use. Take the probe solutions respectively, raise the temperature from 0° C. to 95° C. in a gradient, and detect the fluorescence intensity of the solutions at 525 nm during the temperature rise process to obtain the […]; Conduct the first derivative of the curve by corresponding the maximum value of the curve to the thermal change temperature of the probe.

[3] = Fluorescence spectrogram of probe solutions after 85° C. water bath and 0° C. ice bath; type: physicochemical; details: 300 μM probe solution, excitation 497 nm, emission 500-700 nm
Protocol: Take the peptide probe GOP-10, GPP-10, GPO-10 and GOO-10, and prepare 300 μM probe solutions respectively; Keep above probe solutions in a water bath at 85° C. for 20 min, and measure the fluorescence spectrogram by a fluorescence spectrophotometer immediately. Place heated probe solution in the ice-water mixture at 0° C. for 12 h, and measure the fluorescence spectrogram by fluorescence spectrophotometer again; The excitation wavelength is 497 nm, and the scanning range of emission spectrum is 500-700 nm.

[4] = test system: denatured collagen in mouse intestinal tissue; experiment: Staining of collagen in intestinal tissue of mice by peptide probe; type: binding; details: 15 μM probe; for fluorescence staining ability, probe incubated at 0° C. before staining: FIG. 5a-d; for fluorescence staining ability, probe pretreated at 85° C. before staining: FIG. 5e-h
Protocol: Take the peptide probe GOP-10, GPP-10, GPO-10 and GOO-10, and prepare 300 μM probe solutions respectively; Take the intestinal tissue samples of mice paraffin embedding and slice to 4 μm; After washing and deparaffinating the slices, treat the intestinal tissue with ultrapure water at 85° C. for 10 minutes to denature collagen.

[5] = test system: denatured collagen in sternum and tail tissue sections; experiment: Staining of denatured collagen in paraffin-embedded mouse sternum and frozen tail tissue sections; type: binding; details: general statement on the probes of the embodiments
Protocol: Take the peptide probe prepared in Embodiment 1-5 for staining experiment. Paraffin staining of sternum: Embed mouse sternum tissue sections by paraffin and bake at 75° C. for 2 h; After cooling, treat the tissue with xylene twice, each time for 10 min; Then treat the slice with ethanol of gradient concentration; Finally, use ultrapure water to wash the slices twice. After removing the paraffin, treat the sternum tissue with ultrapure water at 85° C. for 10 minutes to denature collagen. Add blocking solution to the tissue section, leave it for 30 min, then suck up the solution, stain with 100 μL and 15 μM of the above peptide probe solutions, and incubate at 4° C. for 4 h; After removing the staining solution, wash with 1×PBS for 3 times, and wash the unbound probe with the washing solution; Drop mount solution, add cover slide, observe and take photos with fluorescence microscope.
Staining of frozen tail tissue: Treat tail tissue with 1% sodium dodecyl sulfate for 24 hours to denature collagen, and prepare the frozen sections. Put the slices in cold methanol and fix them at −20° C. for 10 min. Wash the frozen sections twice with PBS, add blocking solution to the tissue section, leave it for 30 min, then suck up the solution, stain with 100 μL and 15 μM of the above peptide probe solutions, and incubate at 4° C. for 2 h; After removing the staining solution, wash with 1×PBS for 3 times, and wash the unbound probe with the washing solution; Drop mount solution, add cover slide, observe and take photos with fluorescence microscope.
Results: The staining results of paraffin-embedded sternum tissues of peptide probe GOP-4, GOP-6, GOP-8, GOP-10 and GOP-12 prepared in Embodiment 1-5 of the present invention are shown in FIG. 1a.

[6] = test system: pathological collagen in mouse ear tissue; experiment: Staining of collagen in ear tissue of normal mice and diseased mice by peptide probe; type: binding; details: 15 μM probe
Protocol: Take the peptide probe GOP-10 and prepare 300 μM probe solutions;
Take mouse ear tissue samples for paraffin embedding and slice to 4 μm; After washing and deparaffinating the slice, treat part of the ear bone tissues with ultrapure water at 85° C. for 10 minutes to denature collagen, thus obtaining injured ear tissues; Untreated ear tissue is normal ear tissue. Add blocking solution to the tissue section, leave it for 30 min, then suck up the solution, stain with 100 μL and 15 μM of the above peptide probe solutions, and incubate at 4° C. for 4 h; After removing the staining solution, stain with 100 μL DAPI diluent for lmin and wash with 1×PBS for 3 times, and wash the unbound probe and excessive DAPI diluent with the washing solution; Drop mount solution, add cover slide, observe and take photos with fluorescence microscope;
The test results are shown in FIG. 6, in which the fluorescence detection results of injured mouse ear tissues are shown in FIG. 6a and normal mouse ear tissues are shown in FIG. 6b.

[7] = test system: pathological collagen in human osteoarthritis tissue; experiment: Staining of pathological section of human arthritis; type: binding; details: 15 μM probe, 4° C. 4 h
Protocol: Take human osteoarthritis tissue for paraffin embedding, slice to 4 μm, carry out washing and deparaffinating, and then add with 0.5 mL blocking solution, and suck off the liquid after placing for 30 min. Stain with 100 μL, 15 μM peptide probe solution, and incubate at 4° C. for 4 h. After removing the staining solution, stain with 100 μL DAPI diluent for 1 min. Use 1×PBS to wash for 3 times, and wash the unbound probes and excess DAPI. Drop mount solution, add cover slide, observe and take photos with fluorescence microscope.
The staining results of pathological sections of fibrocartilage of human osteoarthritis are shown in FIG. 7, and the staining results of pathological sections of hyaline cartilage of human osteoarthritis are shown in FIG. 8. […] Therefore, the peptide probe GOP-10 prepared by the invention can be used for detecting pathological collagen in human osteoarthritis fibrocartilage and osteoarthritis hyaline cartilage.

Row | Substance | conformational state (colour of solution) at 0° C. [1] | conformational state (colour of solution) after heating [1] | fluorescence intensity in the range of 0-95° C. [2] | thermal transformation temperature [2] [°C] | change of fluorescence intensity between 85° C. water bath and 0° C. ice bath [3] | fluorescence staining ability, probe incubated at 0° C. before staining [4] | fluorescence staining ability, probe pretreated at 85° C. before staining [4] | binding to pathological collagen [5] | fluorescence staining of injured mouse ear tissue ([6]; collagen denatured at 85° C. for 10 min, FIG. 6a) | fluorescence staining of normal mouse ear tissue ([6]; untreated ear tissue, FIG. 6b) | staining of pathological section of fibrocartilage of human osteoarthritis ([7]; FIG. 7) | staining of pathological section of hyaline cartilage of human osteoarthritis ([7]; FIG. 8)
1 | FAM-Ahx-(GOO)10-NH2 [GOO-10] | trimer state (orange) | single-stranded conformation (green) | increased significantly | 69 | changed significantly | no fluorescence staining ability | can be fluorescently stained |  |  |  |  | 
2 | FAM-Ahx-(GOP)8-NH2 [GOP-8] |  |  |  |  |  |  |  | can specifically bind to pathological collagen |  |  |  | 
3 | FAM-Ahx-(GOP)10-NH2 [GOP-10] | stable single-stranded conformation (green) | single-stranded state (green) | does not change |  | does not change | good fluorescence staining ability | good fluorescence staining ability | can specifically bind to pathological collagen | stained green | no green fluorescence | can specifically bind to pathological collagen | can specifically bind to pathological collagen
4 | FAM-Ahx-(GOP)12-NH2 [GOP-12] |  |  |  |  |  |  |  | can specifically bind to pathological collagen |  |  |  | 
5 | FAM-Ahx-(GPO)10-NH2 [GPO-10] | trimer state (orange) | single-stranded conformation (green) | increased significantly | 63 | changed significantly | no fluorescence staining ability | can be fluorescently stained |  |  |  |  | 
6 | FAM-Ahx-(GPP)10-NH2 [GPP-10] | trimer state (orange) | single-stranded conformation (green) | increased significantly | 39 | changed significantly | no fluorescence staining ability | can be fluorescently stained |  |  |  |  | 
